Activity calls are given as the source filed them.
How the values were obtained:
[1] = NIH-3T3 fibroblast cytotoxicity, dose response, cytotoxicity control, cell-based, fluorescence, Alamar Blue, secondary assay (AID 2327); format: functional;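 also: NIH-3T3 mouse fibroblasts cultured with fluconazole at 8 µg/mL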
[2] = C. albicans growth with fluconazole, confirmation, fluorescence, retest (AID 2467); format: functional, cell-based
Cysteine protease ATG4B = Cysteine protease ATG4B (Homo sapiens, UniProt Q9Y4P1); format: functional;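 also: Fluorescence-based dose-response confirmation assay measuring inhibition of ATG4B activity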
Phospholipase A2 = Phospholipase A2 (Homo sapiens, UniProt P04054); format: functional;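 also: confirmatory dose-response counterscreen on phospholipase A2, testing hits that came from an ultra-high-throughput screen for ATG4B inhibitors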
[3] = molecular target: DNA dC->dU-editing enzyme APOBEC-3A (Homo sapiens, UniProt P31941); assay: APOBEC3A DNA deaminase inhibitors, dose response, biochemical (AID 504722); format: functional
[4] = molecular target: DNA dC->dU-editing enzyme APOBEC-3G (Homo sapiens, UniProt Q9HC16); assay: Dose Response confirmation of small molecule APOBEC3G DNA Deaminase Inhibitors via a fluorescence-based single-stranded DNA deaminase assay. [Related pubchem assays (depositor defined):AID493012, AID493028]; format: functional
[5] = molecular target: Glucose-6-phosphate 1-dehydrogenase (Homo sapiens, UniProt P11413); assay: human G6PD enzyme inhibitors, dose response, selectivity assay for P. falciparum G6PD inhibitor project, biochemical, fluorescence (AID 504792); format: functional
[6] = molecular target: Peroxisome proliferator-activated receptor gamma/Nuclear receptor coactivator 1 (Homo sapiens, UniProt P37231); assay: (§1) TR-FRET dose response biochemical High Throughput Screening assay for agonists of the steroid receptor coactivator 1 (SRC-1) recruitment by the peroxisome proliferator-activated receptor gamma (PPAR gamma): non-selective agonists. [Related pubchem assays (depositor defined):AID1300, AID1808, AID504735, AID631]; format: protein assay
[7] = molecular target: Peroxisome proliferator-activated receptor gamma/Nuclear receptor coactivator 3 (Homo sapiens, UniProt P37231); assay: as §1, with “3 (SRC-3)” for “1 (SRC-1)”, “assays: 1301 (Confirmation screen.), 1048 (Primary screen.)]” for “assays (depositor defined):AID1300, AID1808, AID504735, AID631]”; format: functional
[8] = molecular target: Peroxisome proliferator-activated receptor gamma/Nuclear receptor coactivator 2 (Homo sapiens, UniProt P37231); assay: TR-FRET dose response biochemical High Throughput Screening assay for agonists of the steroid receptor coactivator 2 (SRC-2) recruitment by the peroxisome proliferator-activated receptor gamma (PPAR gamma): non-selective agonists. [Related pubchem assays: 1297, 1032 ]; format: functional
[9] = test system: Streptococcus sp. 'group A'; assay: growth inhibition of control SK(-) GAS strain, dose response, counter-screen for streptokinase expression inhibitor project, luminescence, kanamycin, BacTiterGlo, confirmation (AID 1900); format: functional, organism-based
Streptokinase A = molecular target: T1, Streptokinase A (Streptococcus pyogenes serotype M1, UniProt P10520); assay: S. pyogenes streptokinase expression inhibitors, potency, dose response, plasminogen activation absorbance, OD405 (AID 1914); format: functional, Streptococcus pyogenes M1 GAS;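 also: secreted streptokinase activity via plasminogen activation per viability signal from cell pellet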
T1 sequence (P10520 whole entry): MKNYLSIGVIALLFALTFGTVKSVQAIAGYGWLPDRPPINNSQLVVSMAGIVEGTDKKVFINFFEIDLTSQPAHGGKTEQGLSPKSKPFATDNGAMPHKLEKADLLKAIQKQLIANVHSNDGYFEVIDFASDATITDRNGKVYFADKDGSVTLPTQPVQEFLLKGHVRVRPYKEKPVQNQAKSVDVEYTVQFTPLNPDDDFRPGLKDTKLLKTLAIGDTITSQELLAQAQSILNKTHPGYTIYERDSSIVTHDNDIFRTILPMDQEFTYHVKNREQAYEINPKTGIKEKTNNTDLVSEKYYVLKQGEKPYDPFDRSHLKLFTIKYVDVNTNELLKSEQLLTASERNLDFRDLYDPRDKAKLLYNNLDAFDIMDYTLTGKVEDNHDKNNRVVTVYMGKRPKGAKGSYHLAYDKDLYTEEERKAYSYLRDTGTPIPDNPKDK

[10] = inhibitors of intracellular T. cruzi replication, confirmation, NIH3T3 host cells, beta-gal luminescence (AID 2044); format: functional, cell-based;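 also: intracellular parasites grown in NIH/3T3 mouse fibroblasts as host cells; luminescent beta-galactosidase reporter signal from transgenic T. cruzi replicating inside host cells; inhibitors lower the luminescence signal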
[11] = cytotoxicity toward NIH3T3 fibroblasts, dose response, counter-screen, cell-based, ATP luminescence, mouse fibroblasts (AID 2010); format: functional;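 also: cells exposed to compound for about 90 hours before reading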
Streptococcus = assay: Group A Streptococcus viability loss, dose response, counter-screen for streptokinase expression inhibitor project, luminescence, BacTiterGlo (AID 1915); format: functional, organism-based;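 also: potency for reduction of bacterial viability or growth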
[12] = molecular target: DNA damage-inducible transcript 3 protein (Mus musculus, UniProt P35639); format: functional, Cricetulus griseus
[13] = Counterscreen for IDE inhibitors: Luminescence-based cell-based high throughput dose response assay to identify compounds that are cytotoxic to HEK cells. [Related pubchem assays: 434962 (Primary screen (IDE inhibitors in singlicate)), 449730 (Counterscreen (Cytotoxicity in triplicate)), 435028 (Confirmation (IDE inhibitors in triplicate)) …; format: functional; conditions: HEK293
[14] = cytotoxicity in HPDE-C7 cells, cell-based, fluorescence, HTS (AID 430); format: functional; conditions: Homo sapiens
[15] = microbe, parasite or virus in culture; format: functional; conditions: Mycobacterium tuberculosis
[16] = cytotoxicity in KRAS-transformed pancreatic duct cells, primary screen, cell-based, fluorescence, HTS (AID 431); format: functional; conditions: Homo sapiens;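 also: cell line used: HPDE-C7K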
Insulin-degrading enzyme = molecular target: T2, Insulin-degrading enzyme (Homo sapiens, UniProt P14735); assay: Dose Response: Fluorescence polarization-based cell-based high throughput dose response assay for inhibitors of insulin-degrading enzyme (IDE). [Related pubchem assays: 434962 (Primary screen (IDE inhibitors in singlicate)), 449730 (Counterscreen (Cytotoxicity in triplicate)), 435028 (Confirmation (IDE inhibitors in triplicate)), 434984 (Summary …; format: functional
T2 sequence (P14735 whole entry): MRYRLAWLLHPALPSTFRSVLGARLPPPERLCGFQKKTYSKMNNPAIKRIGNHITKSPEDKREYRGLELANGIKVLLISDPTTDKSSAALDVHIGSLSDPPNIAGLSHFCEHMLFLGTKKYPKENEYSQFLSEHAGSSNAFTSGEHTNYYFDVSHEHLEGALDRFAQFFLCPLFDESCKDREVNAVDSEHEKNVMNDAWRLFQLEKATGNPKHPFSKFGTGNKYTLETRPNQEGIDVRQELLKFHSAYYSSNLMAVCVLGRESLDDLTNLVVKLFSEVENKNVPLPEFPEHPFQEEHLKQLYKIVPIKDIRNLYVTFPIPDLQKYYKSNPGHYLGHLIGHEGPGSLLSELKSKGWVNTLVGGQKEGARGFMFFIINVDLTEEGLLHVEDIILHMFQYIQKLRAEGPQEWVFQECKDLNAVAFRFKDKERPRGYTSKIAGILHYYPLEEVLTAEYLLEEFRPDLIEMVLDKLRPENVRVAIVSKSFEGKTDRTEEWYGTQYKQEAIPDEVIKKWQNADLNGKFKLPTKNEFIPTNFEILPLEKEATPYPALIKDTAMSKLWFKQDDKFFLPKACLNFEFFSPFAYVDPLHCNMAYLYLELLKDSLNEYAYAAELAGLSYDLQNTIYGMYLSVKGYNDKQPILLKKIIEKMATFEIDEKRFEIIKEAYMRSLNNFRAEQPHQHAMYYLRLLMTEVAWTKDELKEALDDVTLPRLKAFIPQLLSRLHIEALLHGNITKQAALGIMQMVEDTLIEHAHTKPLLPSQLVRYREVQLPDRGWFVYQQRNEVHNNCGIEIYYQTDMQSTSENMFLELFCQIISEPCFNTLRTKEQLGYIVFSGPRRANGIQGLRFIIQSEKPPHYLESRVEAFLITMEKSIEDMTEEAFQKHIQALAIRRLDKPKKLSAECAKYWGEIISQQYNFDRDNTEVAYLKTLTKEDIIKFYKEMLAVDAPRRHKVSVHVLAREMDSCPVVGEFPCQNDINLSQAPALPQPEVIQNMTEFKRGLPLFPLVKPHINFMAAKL

[17] = molecular target: C-C chemokine receptor type 6 (Homo sapiens, UniProt P51684); assay: CCR6 receptor antagonists, dose response, cell-based, luminescent beta-arrestin readout (AID 504728); format: functional
Beta-galactosidase = Beta-galactosidase (Escherichia coli, UniProt Q8VNN2); assay: beta-galactosidase enzyme inhibitors and activators, dose response, artefact control for CCR6 antagonist project, biochemical, E. coli enzyme, set 3 (AID 504712); format: functional
INS1 = assay: beta cell apoptosis inhibitors, cytokine rescue, dose response, luminescence, retest (AID 449756); format: functional, cell-based; conditions: Rattus norvegicus;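 also: cell death triggered by IL-1 beta plus TNF-alpha plus IFN-gamma mixture; protective hits raise ATP signal compared with cytokine alone wells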
[18] = inhibitors of HIV Env-driven cell fusion, dose response, cherry-pick (AID 652057); format: functional, cell-based
[19] = CEM21 lymphoblast cell cytotoxicity, dose response, cytotoxicity control for viral fusion inhibitor project, CellTiter-Glo luminescence, cherry-picked (AID 652042); format: functional, cell-based;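 also: potency for signal decrease meaning cytotoxicity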
[20] = ZM109 Env clade C HIV-1 fusion inhibitors, dose response, HeLa effector, CEM target cells, luciferase, cherry-pick (AID 652058); format: functional, cell-based
[21] = inhibitors of clade B AD8 Env fusion, dose response, cell-based, cherry-pick (AID 652062); format: functional;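 also: luciferase signal from cell-cell fusion driven by HIV-1 clade B AD8 Env; potency is for inhibitors of fusion seen as a drop in luminescence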

Chain of Cysteine protease ATG4B (Q9Y4P1 whole entry): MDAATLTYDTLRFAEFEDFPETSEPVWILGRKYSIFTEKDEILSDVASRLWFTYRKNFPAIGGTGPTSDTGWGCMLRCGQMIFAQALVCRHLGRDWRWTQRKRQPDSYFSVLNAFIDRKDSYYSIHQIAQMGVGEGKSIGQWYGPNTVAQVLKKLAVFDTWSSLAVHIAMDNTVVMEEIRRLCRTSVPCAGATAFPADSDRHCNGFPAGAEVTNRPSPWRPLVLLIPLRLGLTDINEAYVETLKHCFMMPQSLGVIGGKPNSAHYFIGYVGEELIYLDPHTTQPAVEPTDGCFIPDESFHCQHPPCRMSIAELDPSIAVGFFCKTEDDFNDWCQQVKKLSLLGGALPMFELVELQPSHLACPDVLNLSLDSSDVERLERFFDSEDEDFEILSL
Chain of Peroxisome proliferator-activated receptor gamma/Nuclear receptor coactivator 3 (P37231 whole entry): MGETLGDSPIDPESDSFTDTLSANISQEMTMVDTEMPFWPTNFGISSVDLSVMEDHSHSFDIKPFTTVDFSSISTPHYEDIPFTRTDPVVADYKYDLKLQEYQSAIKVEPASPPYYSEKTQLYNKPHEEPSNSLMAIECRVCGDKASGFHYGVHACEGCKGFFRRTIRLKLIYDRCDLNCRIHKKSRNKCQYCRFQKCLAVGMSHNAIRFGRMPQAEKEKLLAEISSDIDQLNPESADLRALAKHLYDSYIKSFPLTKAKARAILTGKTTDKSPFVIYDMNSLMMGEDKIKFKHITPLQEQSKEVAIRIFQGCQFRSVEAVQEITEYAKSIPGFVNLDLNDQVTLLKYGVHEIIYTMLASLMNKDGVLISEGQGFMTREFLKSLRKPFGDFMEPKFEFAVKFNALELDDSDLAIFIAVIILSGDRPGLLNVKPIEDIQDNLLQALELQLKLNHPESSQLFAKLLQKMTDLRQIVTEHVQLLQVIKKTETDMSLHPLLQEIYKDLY
Chain of Peroxisome proliferator-activated receptor gamma/Nuclear receptor coactivator 3 (Q9Y6Q9 whole entry, further chain): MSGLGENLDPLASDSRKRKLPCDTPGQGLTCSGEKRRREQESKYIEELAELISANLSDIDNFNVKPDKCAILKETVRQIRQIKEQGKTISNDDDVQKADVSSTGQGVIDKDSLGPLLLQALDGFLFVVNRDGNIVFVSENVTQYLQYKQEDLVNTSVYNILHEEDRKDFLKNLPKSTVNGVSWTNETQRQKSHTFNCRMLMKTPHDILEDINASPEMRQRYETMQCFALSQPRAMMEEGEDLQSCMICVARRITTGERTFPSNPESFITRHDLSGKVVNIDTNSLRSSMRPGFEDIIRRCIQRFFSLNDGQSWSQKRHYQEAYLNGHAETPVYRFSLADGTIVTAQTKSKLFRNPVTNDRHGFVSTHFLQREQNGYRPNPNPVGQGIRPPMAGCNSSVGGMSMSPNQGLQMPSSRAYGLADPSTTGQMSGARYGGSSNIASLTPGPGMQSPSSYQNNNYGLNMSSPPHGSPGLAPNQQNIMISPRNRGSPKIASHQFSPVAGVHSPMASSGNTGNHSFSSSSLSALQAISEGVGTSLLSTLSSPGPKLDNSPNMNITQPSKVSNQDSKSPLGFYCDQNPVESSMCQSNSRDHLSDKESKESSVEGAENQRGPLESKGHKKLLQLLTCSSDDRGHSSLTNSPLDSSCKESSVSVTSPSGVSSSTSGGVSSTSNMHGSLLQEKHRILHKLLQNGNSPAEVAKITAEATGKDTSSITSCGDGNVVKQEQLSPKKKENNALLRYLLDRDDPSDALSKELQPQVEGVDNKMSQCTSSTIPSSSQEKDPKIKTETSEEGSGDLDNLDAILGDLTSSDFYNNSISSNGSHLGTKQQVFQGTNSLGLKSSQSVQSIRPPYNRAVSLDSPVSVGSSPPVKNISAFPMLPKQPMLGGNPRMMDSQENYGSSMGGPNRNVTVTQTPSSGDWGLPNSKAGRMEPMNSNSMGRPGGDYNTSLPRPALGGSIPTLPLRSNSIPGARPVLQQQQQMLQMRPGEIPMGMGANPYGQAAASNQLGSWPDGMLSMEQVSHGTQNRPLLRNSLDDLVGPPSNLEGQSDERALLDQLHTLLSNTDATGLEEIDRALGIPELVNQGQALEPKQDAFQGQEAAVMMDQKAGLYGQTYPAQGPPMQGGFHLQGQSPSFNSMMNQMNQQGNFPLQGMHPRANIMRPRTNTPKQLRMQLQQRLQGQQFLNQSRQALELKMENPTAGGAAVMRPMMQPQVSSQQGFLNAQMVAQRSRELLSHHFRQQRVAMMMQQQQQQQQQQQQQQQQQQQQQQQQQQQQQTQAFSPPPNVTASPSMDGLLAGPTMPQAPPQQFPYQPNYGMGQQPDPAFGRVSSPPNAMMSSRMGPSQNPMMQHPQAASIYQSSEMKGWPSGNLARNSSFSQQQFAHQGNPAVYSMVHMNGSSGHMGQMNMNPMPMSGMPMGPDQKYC
Chain of Peroxisome proliferator-activated receptor gamma/Nuclear receptor coactivator 1 (P37231 whole entry): as the sequence (P37231 whole entry) above
Chain of Peroxisome proliferator-activated receptor gamma/Nuclear receptor coactivator 1 (Q15788 whole entry, further chain): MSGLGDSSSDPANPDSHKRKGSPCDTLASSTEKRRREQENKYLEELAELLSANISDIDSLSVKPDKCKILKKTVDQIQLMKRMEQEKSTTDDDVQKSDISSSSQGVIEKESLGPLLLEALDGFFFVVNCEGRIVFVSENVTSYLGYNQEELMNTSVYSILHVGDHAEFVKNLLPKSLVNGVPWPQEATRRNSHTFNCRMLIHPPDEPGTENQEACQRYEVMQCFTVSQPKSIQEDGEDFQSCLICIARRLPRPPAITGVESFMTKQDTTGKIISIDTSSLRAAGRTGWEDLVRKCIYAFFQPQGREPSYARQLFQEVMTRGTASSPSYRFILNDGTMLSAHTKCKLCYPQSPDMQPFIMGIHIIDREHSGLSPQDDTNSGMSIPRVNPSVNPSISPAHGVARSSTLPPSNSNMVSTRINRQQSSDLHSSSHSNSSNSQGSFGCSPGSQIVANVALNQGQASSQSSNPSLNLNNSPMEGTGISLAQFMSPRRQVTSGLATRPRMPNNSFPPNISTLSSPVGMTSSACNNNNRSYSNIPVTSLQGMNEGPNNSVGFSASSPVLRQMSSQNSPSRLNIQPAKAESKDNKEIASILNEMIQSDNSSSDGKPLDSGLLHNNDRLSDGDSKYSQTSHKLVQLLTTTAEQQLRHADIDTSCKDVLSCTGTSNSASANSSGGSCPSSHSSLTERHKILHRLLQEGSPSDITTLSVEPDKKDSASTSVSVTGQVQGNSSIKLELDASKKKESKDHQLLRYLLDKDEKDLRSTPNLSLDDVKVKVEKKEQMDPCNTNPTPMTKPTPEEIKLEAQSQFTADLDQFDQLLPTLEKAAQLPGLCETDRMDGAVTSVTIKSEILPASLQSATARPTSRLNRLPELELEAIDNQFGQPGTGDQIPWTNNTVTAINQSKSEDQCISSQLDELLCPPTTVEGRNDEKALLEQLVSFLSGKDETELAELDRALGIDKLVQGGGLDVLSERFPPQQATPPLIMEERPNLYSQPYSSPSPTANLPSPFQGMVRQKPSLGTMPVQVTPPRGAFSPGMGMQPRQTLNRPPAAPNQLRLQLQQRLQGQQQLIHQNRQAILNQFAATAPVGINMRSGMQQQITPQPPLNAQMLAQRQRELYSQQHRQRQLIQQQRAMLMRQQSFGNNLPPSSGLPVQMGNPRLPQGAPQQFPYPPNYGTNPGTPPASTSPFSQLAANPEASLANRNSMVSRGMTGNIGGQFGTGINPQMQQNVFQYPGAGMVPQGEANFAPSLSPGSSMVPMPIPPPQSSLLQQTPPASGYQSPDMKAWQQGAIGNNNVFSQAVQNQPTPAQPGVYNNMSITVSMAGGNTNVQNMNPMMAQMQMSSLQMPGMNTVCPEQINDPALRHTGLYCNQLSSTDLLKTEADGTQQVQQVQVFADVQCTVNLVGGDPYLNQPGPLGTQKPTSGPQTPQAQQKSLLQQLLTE
Chain of Phospholipase A2 (P04054 whole entry): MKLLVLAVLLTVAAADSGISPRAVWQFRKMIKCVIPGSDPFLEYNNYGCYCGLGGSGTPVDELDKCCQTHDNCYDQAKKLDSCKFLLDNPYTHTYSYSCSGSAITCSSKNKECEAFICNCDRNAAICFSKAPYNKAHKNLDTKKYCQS
Chain of DNA dC->dU-editing enzyme APOBEC-3G (Q9HC16 whole entry): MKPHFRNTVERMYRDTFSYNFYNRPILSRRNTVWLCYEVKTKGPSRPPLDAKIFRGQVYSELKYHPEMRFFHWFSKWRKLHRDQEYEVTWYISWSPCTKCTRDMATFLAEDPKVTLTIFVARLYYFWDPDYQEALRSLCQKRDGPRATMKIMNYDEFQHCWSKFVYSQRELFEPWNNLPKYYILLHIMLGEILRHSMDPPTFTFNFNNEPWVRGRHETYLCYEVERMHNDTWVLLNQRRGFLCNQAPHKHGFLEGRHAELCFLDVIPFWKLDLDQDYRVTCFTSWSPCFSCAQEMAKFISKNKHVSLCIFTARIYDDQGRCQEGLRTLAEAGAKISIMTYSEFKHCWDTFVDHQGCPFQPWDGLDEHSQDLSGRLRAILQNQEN
Chain of DNA dC->dU-editing enzyme APOBEC-3A (P31941 whole entry): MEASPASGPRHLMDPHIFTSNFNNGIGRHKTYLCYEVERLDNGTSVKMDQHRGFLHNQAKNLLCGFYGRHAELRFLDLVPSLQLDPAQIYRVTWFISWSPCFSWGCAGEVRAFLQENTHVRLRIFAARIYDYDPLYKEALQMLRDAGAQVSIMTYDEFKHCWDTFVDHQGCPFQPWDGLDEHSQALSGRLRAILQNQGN

Structure (SMILES): CCOC(=O)c1c(-c2ccccc2)oc2cc(Br)c(O)c(C=O)c12
- EC50 [1]: 4.74 µM (inconclusive)
- EC50 [2]: 2.69 µM (active)
- IC50 (Cysteine protease ATG4B): 9.27 µM (active)
- IC50 (Phospholipase A2): 3.36 µM (active)

Structure (SMILES): C=CCn1c(OCc2ccccc2)n[nH]c1=S
- IC50 [3]: > 100 µM (inactive)
- IC50 [4]: 7.3 µM (active)

Structure (SMILES): COc1ccccc1NS(=O)(=O)c1cc(NC(=O)c2ccc(Cl)nc2)ccc1N1CCCC1
- IC50 [3]: > 100 µM (inactive)
- IC50 [5]: > 80 µM (inactive)
- IC50 [4]: 14.3 µM (active)

Structure (SMILES): Cn1c(=O)cc(SCC(=O)N2CCN(c3ccccc3)CC2)c2ccccc21
- EC50 [6]: > 79.4 µM (inactive)
- EC50 [7]: > 79.4 µM (not active)
- EC50 [8]: 185 µM (not active)

Structure (SMILES): Cn1c(=O)cc(SCC(=O)N2CCN(c3ccccn3)CC2)c2ccccc21
- EC50 [6]: > 79.4 µM (inactive)
- EC50 [7]: > 79.4 µM (not active)
- EC50 [8]: > 79.4 µM (not active)

Structure (SMILES): COc1ccc(-c2nnc(CSc3nc4ccccc4c(=O)n3CC(C)C)o2)cc1OC
- IC50 (Cysteine protease ATG4B): 6.22 µM (active)
- IC50 (Phospholipase A2): 1.19 µM (active)

Structure (SMILES): O=C(Nc1ccccc1-c1nc2ccccc2[nH]1)c1sc2ccccc2c1Cl
- EC50 [9]: 21.3 µM (active)
- EC50 (Streptokinase A): > 150 µM (not active)
- EC50 [10]: 2.1 µM (active)
- EC50 [11]: > 60 µM (inconclusive)
- EC50 (Streptococcus): > 150 µM (not active)
- Absolute IC50 (CHOP) [12]: 10 µM

Structure (SMILES): CCCn1c(Nc2nc3ccccc3n2C)nc2ccccc21
- EC50 [1]: > 160 µM (inconclusive)
- IC50 [13]: 14.4 µM (not active)
- EC50 [2]: 1.33 µM (active)
- EC50 [14]: 6.72 µM (active)
- CC50 [15]: 13.4 µM (active)
- EC50 [16]: 7.01 µM (active)
- IC50 (Insulin-degrading enzyme): > 55.9 µM (not active)
- IC50 [17]: > 66.6 µM (inactive)
- IC50 (Beta-galactosidase): > 66.6 µM (inactive)
- AC50 (INS1): 7.73 µM (active)
- AC50 [18]: 10.1 µM (active)
- AC50 [19]: 8.31 µM (active)
- AC50 [20]: 8.59 µM (active)
- AC50 [21]: 10.4 µM (active)
